# Assay results from patent US20160193188A1, “METHODS AND COMPOSITIONS FOR INCREASING THE EFFECTIVENESS OF ANTIVIRAL AGENTS” (ANTIVIRUS THERAPEUTICS, priority 2013, published 2016).
# Where two headings read alike, the source gives them in different places.
# What was measured:
# [1] = Study 843-203: safety and tolerability in healthy adults; type: in vivo, human; details: healthy volunteers
# [2] = 12 mg per day nasal spray; cited from earlier work
# [3] = system: CYP 3A; details: oral delivery, 200-400 mg dose level, cited from earlier work
# [4] = 25° C.; cited from earlier work
# [5] = system: rhinovirus type 39; assay: Study 843-203: experimentally induced human rhinovirus respiratory infection in healthy adults, antiviral and clinical efficacy; type: in vivo
# Procedure: Subjects were confined to a clinical facility with on-site medical surveillance from Day −2 through Day 5; outpatient follow-up visits were conducted on Days 5-7. On Day −1, 24 hours before administration of the first dose of study drug, each subject received an intranasal inoculation of 100-300 tissue culture infective dose 50% (TCID50) rhinovirus type 39. Nasal wash specimens were collected pre-inoculation and once or twice daily at predetermined time points on Days 1-7 for virologic determinations. Nasal mucus weights were determined daily through Day 4. The presence and severity of clinical symptoms were assessed throughout the study period. […] One subject in the pleconaril BID nasal spray group had study drug interrupted temporarily due to “blood in nasal mucus” observed on Day 1; this event was considered mild and resolved without treatment, and the subject completed BID dosing on Days 2 and 3.
# Primary Endpoint: Log-transformed virus titers from serial nasal wash samples in Study 843-203 are shown in FIG. 2 for virology evaluable subjects (i.e., those subjects with a pre-inoculation serum neutralizing antibody titer to rhinovirus type 39 ˜1:2 and reverse transcriptase polymerase chain reaction [RT-PCR] and culture negative nasal wash sample and at least one post baseline nasal wash sample that was RT-PCR or culture positive). At the time of maximum viral titers (Day 2 AM) in the combined vehicle groups, median viral titers in each pleconaril group were 0.78-1.26 log lower than vehicle groups, and viral titers in the combined pleconaril BID/TID groups were 1 log lower than the vehicle groups.
# [6] = system: human respiratory picornavirus; details: oral dosage form; cited from earlier work
smiles,measurement,setting,value
"Cc1cc(CCCOc2c(C)cc(-c3noc(C(F)(F)F)n3)cc2C)on1 [pleconaril, 3-{3,5-dimethyl-4-[3-(3-methylisoxazol-5-yl)propoxy]phenyl}-5-(trifluoromethyl)-1,2,4-oxadiazole]",serious adverse events,[1],No serious adverse events
same,clinical/antiviral effect compared with 400 mg oral dose,[2],roughly similar clinical/antiviral effect
same,systemic exposure,[2],without any significant systemic exposure
same,CYP 3A / CYP 3A4 induction,[3],inducer of CYP 3A4
same,CYP 3A / CYP 3A4 induction,[3]; listed as Pleconaril,induction of CYP 3A
same,solubility in water,[4],< 0.02 µg/mL
same,"repeated measures analysis of viral titers, between-group comparison",[5]; Day 1 PM to Day 7,not significant
same,median log-transformed viral titers vs vehicle groups,"[5]; each pleconaril treatment group (intranasal and oral), initiation of study drug through Day 3 AM",lower than the vehicle groups at all measured time points
same,nasal mucus weights vs combined vehicle controls,[5]; nasal and oral pleconaril groups,significantly lower nasal mucus weights
same,benefit vs. vehicle,"[5]; nasal and oral pleconaril groups, through day 3 post infection",showed benefit vs. vehicle
same,effect on common cold symptom duration and viral titers,"[5]; nasal spray BID, nasal spray TID or oral",effective in reducing common cold symptom duration and viral titers
same,median viral titers lower than vehicle groups,"[5]; nasal wash, Day 2 AM (time of maximum viral titers), each pleconaril group",0.78-1.26 log
same,viral titers lower than vehicle groups,"[5]; nasal wash, Day 2 AM, combined pleconaril BID/TID groups",1 log
same,activity against human respiratory picornavirus,[6],broad activity
